What was measured:
[1] = biological target: T1, human beta-cardiac myosin subfragment 1 (M2β-S1) (Homo sapiens, UniProt P12883); assay: stopped-flow mant fluorescence, release from acto-M2β-S1 on mixing with ATP (rate constant without pN-Bleb); assay type: binding; parameters: gene MYH7; subfragment 1, amino acids 1–843, N-terminal FLAG tag, C-terminal Avi tag; with actin; settings: read-out: stopped-flow mant fluorescence, release from acto-M2β-S1 on mixing with ATP (rat)
[2] = biological target: T1, human beta-cardiac myosin subfragment 1 (M2β-S1); assay: actin-activated ATPase (NADH-linked assay); also in vitro motility (IC50 […]); assay type: biochemical; parameters: gene MYH7; subfragment 1, amino acids 1–843, N-terminal FLAG tag, C-terminal Avi tag
[3] = biological target: T2, skeletal muscle heavy meromyosin (Sk HMM); assay: as above; assay type: biochemical
T2 construct: heavy meromyosin, prepared from rabbit psoas muscle (Results text says chicken)

T1 sequence (P12883 1-843): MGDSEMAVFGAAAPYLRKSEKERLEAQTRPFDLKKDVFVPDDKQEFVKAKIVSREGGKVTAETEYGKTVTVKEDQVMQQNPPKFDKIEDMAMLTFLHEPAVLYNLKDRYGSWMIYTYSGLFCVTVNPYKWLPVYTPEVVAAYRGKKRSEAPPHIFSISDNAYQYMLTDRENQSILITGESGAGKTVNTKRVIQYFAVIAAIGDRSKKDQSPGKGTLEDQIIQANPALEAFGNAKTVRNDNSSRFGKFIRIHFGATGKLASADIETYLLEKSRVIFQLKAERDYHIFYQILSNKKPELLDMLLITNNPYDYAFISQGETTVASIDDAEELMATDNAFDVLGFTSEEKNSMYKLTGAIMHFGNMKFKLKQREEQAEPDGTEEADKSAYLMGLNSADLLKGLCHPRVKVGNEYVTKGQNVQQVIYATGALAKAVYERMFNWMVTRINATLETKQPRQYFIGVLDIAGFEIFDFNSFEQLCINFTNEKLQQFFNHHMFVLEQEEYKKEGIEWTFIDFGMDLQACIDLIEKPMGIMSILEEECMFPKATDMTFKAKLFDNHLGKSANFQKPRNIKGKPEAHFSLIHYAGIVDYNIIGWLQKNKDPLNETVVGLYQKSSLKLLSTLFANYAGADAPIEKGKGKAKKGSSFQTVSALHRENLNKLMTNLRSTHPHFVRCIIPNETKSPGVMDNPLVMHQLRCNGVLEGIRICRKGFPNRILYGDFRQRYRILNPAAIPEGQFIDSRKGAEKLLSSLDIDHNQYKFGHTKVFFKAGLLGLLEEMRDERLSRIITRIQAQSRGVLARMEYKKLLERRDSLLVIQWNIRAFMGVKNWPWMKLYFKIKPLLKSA

SMILES	koff [1] [s⁻¹]	IC50 [2] [µM]	IC50 [3] [µM]
CNc1ccccc1C(=O)O[C@H]1C[C@H](n2cnc3c(N)ncnc32)O[C@@H]1COP(=O)(O)OP(=O)(O)O	229 ± 6.5	–	–
Cc1ccc2c(c1)C(=O)[C@]1(O)CCN(c3ccc([N+](=O)[O-])cc3)C1=N2 [pN-Bleb, para-Nitroblebbistatin]	–	12.3 ± 1.8	0.43 ± 0.11
